Experimental data reported in the NIST ThermoML archive (doi:10.1016/j.tca.2019.178375).
± gives the expanded uncertainty stated by the source.

How the values were obtained:
[1] = Crystal; DTA
[2] = Molar enthalpy of transition or fusion; conditions: Crystal; DSC

For `Cl.c1ccc([C@H]2CN3CCSC3=N2)cc1` [(-)-Levamisole hydrochloride], the Normal melting temperature [1] was 227.00 ± 4 °C and the “Molar enthalpy of transition or fusion” value [2] was 31.9 ± 2 kJ/mol.
